Results reported in ChEMBL document CHEMBL2321873, “1-(4-Phenylpiperazin-1-yl)-2-(1H-pyrazol-1-yl)ethanones as novel CCR1 antagonists” (Bioorg Med Chem Lett, 2013).

What was measured:
[1] = Oral bioavailability in Sprague-Dawley rat at 5 mg/kg; format: ADME, organism-based; details: in vivo
[2] = Half life in Sprague-Dawley rat at 0.5 mg/kg, iv; format: ADME, organism-based; set-up: dose 0.5 mg/kg, route intravenous; details: in vivo
[3] = Clearance in Sprague-Dawley rat at 0.5 mg/kg, iv; format: ADME, organism-based; set-up: dose 0.5 mg/kg, route intravenous; details: in vivo
[4] = Stability of the compound at pH 7.4; format: physicochemical; details: buffer

Compound | bioavailability [1] [%] | half-life [2] [min] | clearance [3] [mL/min/kg] | Stability [4]
Cc1c(Cl)c(C(F)(F)F)nn1CC(=O)N1CCN(c2ccc(F)cc2)CC1 | 10 | 114 | 23 | 
COc1cc(N2CCN(C(=O)Cn3nc(C(F)(F)F)c(Cl)c3C)[C@H](CO)C2)ccc1Cl |  |  |  | Unstable
